The subject of assay [1] is HIV-1 NL4-3. It counts as cell-based. The following applies: for IC50: NL4-3. Here is the method:
(§1) Cell cultures - Human peripheral blood lymphocytes (PBL) obtained from healthy HIV-seronegative donors were isolated by Ficoll-Hypaque gradient centrifugation and maintained in RPMI 1640 with ultraglutamine supplemented with […], 100 U/ml penicillin and […] streptamycin, and 10% heat-inactivated fetal calf serum. Cells were stimulated three days in the medium supplemented with 20 U/ml phytohemagglutinin P before evaluation of the antiviral activity. The human C8166 T-cell line was maintained in RPMI 1640 supplemented with 100 U/ml penicillin and […] streptamycin, and 10% heat-inactivated fetal calf serum.
(§2) Evaluation of antiviral activity on human immune cells - Samples of 3 x 10^5 human PBL in […] are preincubated in 96-well plates with various concentrations of each peptide at 37°C (incubator flushed with 5% CO2). After 1 hour incubation, […] of viral suspension (HIV-1 NL4-3 strain) was added at a multiplicity of infection of 1,000 TCID50 per ml. After three washings, cells were cultured in 24-well plates with 1 ml of RPMI 1640 in the continuous presence of the peptides. The cell culture medium was replaced at day 4 post-infection. During this assay, treatment with antiviral compounds was permanent (before, during and after infection). Toxicity was evaluated through daily cell counts and trypan-blue exclusion assays. Infection of human PBL was assessed daily by virus-induced cytopathic effects (syncytium formation) and after 14 days by quantification of p24 antigen in culture supernatants. Measurements of HIV-1 p24 concentrations in the culture supernatant were achieved by ELISA with a detection cut-off of 5 pg/ml (p24 HIV kit, Perkin-Elmer). Similar assays were performed with human C8166 T-cells. Data on PBL are the mean of two separate experiments realized in duplicate.

Assay [2] relates to HIV-1 NL4-3. The assay can be described thus: Infection assay on human PBL with HIV-1 NL4-3 (syncytium formation, p24 antigen ELISA). Format: cell-based. The following applies: Human immunodeficiency virus 1, NL43, HIV-1 NL4-3 (1,000 TCID50), peptides continuously present; for IC50: read-out: IC50 (50% inhibitory concentration); for IC100: read-out: IC100 (100% inhibitory concentration). Here is the method:
as §1, §2

Where a name gives a salt, the structure may show the parent alone. Read-outs that look alike come from different tables or passages of the source. Where a SMILES comes first, the peptide text is derived from it. Bridges are numbered along the chain shown (N, C = ends). Roman numbers before positions name the chains, in order. Where no end group is shown, it is not given here. [ ]: non-standard residue; d: D form. Ava = NCCCCC(=O)O

For `C[C@@H](O)[C@H](NC(=O)[C@H](Cc1c[nH]c2ccccc12)NC(=O)[C@@H]1CCCN1C(=O)[C@H](CO)NC(=O)[C@@H](N)Cc1ccc(O)cc1)C(=O)N[C@@H](CC(N)=O)C(=O)N[C@@H](Cc1ccccc1)C(=O)NCCCC[C@H](NC(=O)[C@H](Cc1ccccc1)NC(=O)[C@H](CC(N)=O)NC(=O)[C@@H](NC(=O)[C@H](Cc1c[nH]c2ccccc12)NC(=O)[C@@H]1CCCN1C(=O)[C@H](CO)NC(=O)[C@@H](N)Cc1ccc(O)cc1)[C@@H](C)O)C(=O)NCCCC[C@H](NC(=O)[C@H](CCCCNC(=O)[C@H](Cc1ccccc1)NC(=O)[C@H](CC(N)=O)NC(=O)[C@@H](NC(=O)[C@H](Cc1c[nH]c2ccccc12)NC(=O)[C@@H]1CCCN1C(=O)[C@H](CO)NC(=O)[C@@H](N)Cc1ccc(O)cc1)[C@@H](C)O)NC(=O)[C@H](Cc1ccccc1)NC(=O)[C@H](CC(N)=O)NC(=O)[C@@H](NC(=O)[C@H](Cc1c[nH]c2ccccc12)NC(=O)[C@@H]1CCCN1C(=O)[C@H](CO)NC(=O)[C@@H](N)Cc1ccc(O)cc1)[C@@H](C)O)C(N)=O` [(YSPWTNF)4-K2-K-NH2] (I: H-YSPWTNFKK-NH2 / II: H-YSPWTNFK / III: H-YSPWTNF / IV: H-YSPWTNF; amide I:8-IV:C, I:9-II:C, II:8-III:C), in assay [1], the IC50 is 1000 nM.
Regarding `CC(C)(C)NC(=O)[C@@H]1CN(Cc2cccnc2)CCN1C[C@@H](O)C[C@@H](Cc1ccccc1)C(=O)N[C@H]1c2ccccc2C[C@H]1O` [Crixivan®, Indinavir Sulfate], in assay [2], the IC50 came out at 70 nM and the IC100 is 0.5 µM.
In the case of `Nc1ccn([C@@H]2CS[C@H](CO)O2)c(=O)n1` [Epivir®, Lamivudine], in assay [2], the IC50 came to 50 nM and the IC100 was 0.5 µM.
In assay [1], `C[C@@H](O)[C@H](NC(=O)[C@H](Cc1c[nH]c2ccccc12)NC(=O)[C@@H]1CCCN1C(=O)[C@H](CO)NC(=O)[C@@H](N)Cc1ccc(O)cc1)C(=O)N[C@@H](CC(N)=O)C(=O)N[C@@H](Cc1ccccc1)C(=O)NCCCCC(N)=O` [YSPWTNF-valerate-NH2] (H-YSPWTNF[Ava]-NH2; N-terminus assumed) returned an IC50 of 500 nM. In addition, the “IC100 (100% inhibitory concentration)” value in assay [1] (human PBL, HIV-1 NL4-3 (1,000 TCID50), peptides continuously present) is listed as above 5 µM.
With `C[C@H](O)[C@@H](NC(=O)[C@@H](Cc1c[nH]c2ccccc12)NC(=O)[C@H]1CCCN1C(=O)[C@@H](CO)NC(=O)[C@H](N)Cc1ccc(O)cc1)C(=O)N[C@H](CC(N)=O)C(=O)N[C@H](Cc1ccccc1)C(N)=O` [YdSdPdWdTdNdFd-NH2] (H-[dY][dS][dP][dW][dT][dN][dF]-NH2), the IC50 in assay [1] is 5000 nM.
The same measure, in the same setting: to YSPITNF-NH2 [YSPITNF-NH2] belongs 300 nM.
The compound YSPWTNF-NH2 [YSPWTNF-NH2] registered an IC50 in assay [1] of 10 nM.
